In article PMC7217877, “N-AS-triggered SPMs are direct regulators of microglia in a model of Alzheimer’s disease” (Nature Communications, 2020):
Substitutions are numbered along the chain they refer to. Values joined by “and” are separate entries in the source; they are usually repeats but may differ in a detail not shown here. Identical values can stand only once.

What was measured:
COX2 N181A = target: T1, COX2 N181A (Homo sapiens, UniProt P35354, N181A); assay: filter binding assay of [14C] N-AS to COX2; conditions: 0.2 uM, replicates
T1 construct: His (N); made in house
T1 sequence (P35354 18-604 N181A): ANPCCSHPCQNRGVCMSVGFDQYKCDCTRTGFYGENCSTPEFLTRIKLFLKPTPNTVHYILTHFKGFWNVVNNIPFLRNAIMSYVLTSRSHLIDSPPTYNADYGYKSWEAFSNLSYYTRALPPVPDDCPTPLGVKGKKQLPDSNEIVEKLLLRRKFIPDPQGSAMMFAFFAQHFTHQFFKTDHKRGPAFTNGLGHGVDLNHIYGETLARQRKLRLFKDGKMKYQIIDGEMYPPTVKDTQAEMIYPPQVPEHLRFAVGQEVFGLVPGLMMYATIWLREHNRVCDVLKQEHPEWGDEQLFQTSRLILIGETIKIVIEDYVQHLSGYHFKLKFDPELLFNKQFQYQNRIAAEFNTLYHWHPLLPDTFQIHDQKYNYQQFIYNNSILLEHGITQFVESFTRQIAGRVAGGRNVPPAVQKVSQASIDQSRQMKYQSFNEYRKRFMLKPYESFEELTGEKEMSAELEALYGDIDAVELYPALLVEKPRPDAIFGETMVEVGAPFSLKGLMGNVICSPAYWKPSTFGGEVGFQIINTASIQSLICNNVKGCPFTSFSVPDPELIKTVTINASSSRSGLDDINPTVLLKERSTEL

[1] = target: T2, COX2 of WT and APP/PS1 mice (Mus musculus, UniProt Q05769); assay: in vivo COX2 acetylation in microglia and neuron after oral [14C] N-AS (Supplementary Fig 4d)
T2 construct: from tissue; host or cells: microglia and neurons isolated from brain of 9-months-old WT and APP/PS1 mice
T2 sequence (Q05769 18-604): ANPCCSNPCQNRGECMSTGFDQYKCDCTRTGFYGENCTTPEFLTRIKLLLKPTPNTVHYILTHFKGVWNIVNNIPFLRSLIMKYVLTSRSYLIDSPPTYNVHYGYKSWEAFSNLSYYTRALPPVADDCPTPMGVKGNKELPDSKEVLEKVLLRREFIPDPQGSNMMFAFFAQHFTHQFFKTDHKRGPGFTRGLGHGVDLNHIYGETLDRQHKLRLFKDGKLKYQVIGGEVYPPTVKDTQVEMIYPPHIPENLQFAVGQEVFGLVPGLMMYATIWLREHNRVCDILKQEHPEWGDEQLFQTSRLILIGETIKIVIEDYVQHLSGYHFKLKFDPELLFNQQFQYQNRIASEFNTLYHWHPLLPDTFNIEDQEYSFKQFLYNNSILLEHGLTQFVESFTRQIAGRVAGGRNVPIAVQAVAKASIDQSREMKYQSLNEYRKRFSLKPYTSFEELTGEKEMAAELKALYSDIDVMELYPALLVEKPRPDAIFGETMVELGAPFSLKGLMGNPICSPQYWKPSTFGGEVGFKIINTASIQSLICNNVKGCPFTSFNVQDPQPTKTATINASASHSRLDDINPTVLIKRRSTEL
Protocol: Acetylation assays were performed according to previously described procedures with minor modifications. […] To confirm the N-AS-mediated COX2 acetylation, 10 μg COX2 (WT or mutants) was used incubated with [^14C] N-AS (2 μCi, ARC UK Ltd, ARC-1024) at 37 °C for 2 h. [^14C] aspirin (2 μCi, ARC UK Ltd, ARC-0473) was conducted as the positive control. The reactions were terminated by placing the reaction tubes in ice for 5 min. To evaluate in vivo neuronal and microglial COX2 acetylation, 10 μCi [^14C] N-AS was orally administrated to 9-months-old WT and APP/PS1 mice. After 1 h, neuron and microglia were isolated and sonicated in culture media. To immunoprecipitate acetylated COX2, the sample was incubated with COX2 antibody (Abcam, ab15191) at 4 °C for 24 h and precipitated by adding 50 μl of protein-A sepharose (GE Healthcare). Acetylated COX2 proteins bound to the beads were analyzed using a Tri-Carb 3110TR liquid scintillation counter (Perkin-Elmer).

COX2 T564A = target: T3, COX2 T564A (Homo sapiens, UniProt P35354, T564A); assay: in vitro [14C] acetylation assay of purified COX2; assay type: biochemical; set-up: unit not given here; conditions: replicates, listed as C14 N-AS
T3 construct: His (N); made in house
T3 sequence (P35354 18-604 T564A): T1 sequence (P35354 18-604 N181A) with A164N, T547A
Text: Single point mutations in SphK1 (R56A, R57A, R24A, R185A, D178A, and F192A) and COX2 (S565A, N181A, T564A, and S567A) were generated using the In-Fusion Cloning Kits (Clontech) and ORF cDNA expression plasmids of human SphK1 and COX2 gene (Sino Biological Inc, HG15679-NH and HG12036-NH), according to the manufacturer’s instructions. The forward and reverse primers described in Supplementary Table 4. The SphK1 WT, SphK1 mutants, COX2 WT, and COX2 mutant plasmids were transformed in the One shot TOP 10 competent cell (Invitrogen). The bacteria were grown in Luria-Bertani (LB, Invitrogen) plates supplemented with 50 μg ml^−1 kanamycin (Sigma-Aldrich) at 37 °C. The bacterial cell pellets were resuspended in lysis buffer containing 20 mM sodium phosphate (GE Healthcare), 500 mM NaCl (GE Healthcare), 20 mM imidazole (pH 7.4) (GE Healthcare), 0.2 mg ml^−1 lysozyme (Sigma-Aldrich), 20 μg ml^−1 DNase I (Roche), 1 mM MgCl2 (Sigma-Aldrich), and 1 mM PMSF (Sigma-Aldrich) before being lysed by sonication and clarified by centrifugation at 15,493×g for 10 min. […]
Acetylation assays were performed according to previously described procedures with minor modifications. […] Acetylated COX2 proteins bound to the beads were analyzed using a Tri-Carb 3110TR liquid scintillation counter (Perkin-Elmer).

## CCCCCCCCCCCCC/C=C/[C@@H](O)[C@H](CO)NC(C)=O [N-AS, N-((2S,3R,E)-1,3-Dihydroxyoctadec-4-en-2-yl)acetamide]
COX2 N181A
  binding velocity (Vbinding): 0.489 nM/min and 0.461 nM/min and 0.240 nM/min
[1]; Microglia, APP/PS1 mice, relative to WT = 100, listed as [14C] N-AS
  in vivo COX2 acetylation after oral [14C] N-AS (sFig 4d): 223.529 and 255.556 and 247.368 and 238.095 and 191.304 and 233.333
[1]; Microglia, WT mice (set to 100)
  in vivo COX2 acetylation after oral [14C] N-AS (sFig 4d): 100
[1]; Neuron, APP/PS1 mice, relative to WT = 100, listed as [14C] N-AS
  in vivo COX2 acetylation after oral [14C] N-AS (sFig 4d): 104 and 95.8333 and 96.1539 and 114.286 and 112.5
[1]; Neuron, WT mice (set to 100)
  in vivo COX2 acetylation after oral [14C] N-AS (sFig 4d): 100
[1]; oral [14C] N-AS, APP/PS1 vs WT microglia
  [14C] radioreactivity of COX2 from microglia: more avidly bound to and acetylated COX2 of APP/PS1 microglia
[1]; oral [14C] N-AS, APP/PS1 vs WT neurons
  [14C] radioreactivity of COX2 from neurons: no significant differences were observed in neurons
COX2 T564A
  C14 radioactivity of COX2, acetylation assay (Fig 1h): 226529 and 226073 and 226403 and 227396 and 226676 and 226952
